pIC50: −log10 of the molar value.
test system: PDE4 from human U-937 cells; assay: PDE4 Inhibition Assay; assay type: biochemical; conditions: 1 μM cAMP, [3H]-cAMP, read-out: Potency Class (Inhibitory Concentration) in the PDE4 assay
Procedure: PDE4 from human U-937 cells was used (see T. J. Torphy, et al., J. Pharmacol. Exp. Ther., 1992, 263, 1195-1205). Test compound at various concentration and/or vehicle was preincubated with 2 μg/ml enzyme in Tris-HCl buffer pH 7.5 for 15 minutes at 25° C. The reaction was initiated by addition of 1 1 μM cAMP and 0.01 1 μM [^3H]-cAMP for another 20 minute incubation period and terminated at 100° C. The resulting [^3H]-AMP was converted to [^3H]-adenosine by addition of snake venom nucleotidase and separated by AG1-X2 resin. An aliquot was removed and counted to determine the amount of [^3H]-adenosine formed. Results were converted to percent inhibition and IC so determined using XLfit from IDBS (ID Business Solutions Ltd., 2 Occam Court, Surrey Research Park, Guildford, Surrey, GU2 7QB UK).
Representative compounds of the present invention were tested and found to have significant PDE4 inhibition in this assay.

`COc1ccc(N2CCN(C(=O)Cc3c[nH]cn3)[C@@H](CC(C)C)C2)cc1OC1CCC1` [Compound 367, (S)-1-(4-(3-cyclobutoxy-4-methoxyphenyl)-2-isobutylpiperazin-1-yl)-2-(1H-imidazol-4-yl)ethanone] was tested. Which pIC50 did it give?
The pIC50 was greater than 6.70.

With `COc1ccc(N2CCN(C(=O)Cc3ccc[nH]3)[C@@H](Cc3ccccc3)C2)cc1OC1CCCC1` [Compound 306, (S)-1-(2-benzyl-4-(3-(cyclopentyloxy)-4-methoxyphenyl)piperazin-1-yl)-2-(1H-pyrrol-2-yl)ethanone] as the compound, how does the pIC50 read?
Its pIC50 is 6.00 to 6.70.

`CCc1nn(C(C)C)c2cc(N3CCN(CC(N)=O)[C@@H](Cc4ccccc4)C3)ccc12` [Compound 383, (S)-2-(2-benzyl-4-(3-ethyl-1-isopropyl-1H-indazol-6-yl)piperazin-1-yl)acetamide] was tested. Which pIC50 did it give?
The pIC50 was less than 6.00.

`CCc1nn(C(C)C)c2cc(N3CCN(C(C)=O)[C@@H](Cc4ccccc4)C3)ccc12` [Compound 379, (S)-1-(2-benzyl-4-(3-ethyl-1-isopropyl-1H-indazol-6-yl)piperazin-1-yl)ethanone] was tested. Which pIC50 did it give?
The pIC50 was less than 6.00.

With `COc1ccc(N2CCN(C(=O)Cc3cnc[nH]3)[C@@H](Cc3ccccc3)C2)cc1OC(C)C` [Compound 327, (S)-1-(2-benzyl-4-(3-isopropoxy-4-methoxyphenyl)piperazin-1-yl)-2-(1H-imidazol-5-yl)ethanone] as the compound, how does the pIC50 read?
The pIC50 was greater than 6.70.

With `COc1ccc(N2CCN(C(=O)Cc3cn(C)cn3)[C@@H](Cc3ccccc3)C2)cc1OC1CCCC1` [Compound 317, (S)-1-(2-benzyl-4-(3-(cyclopentyloxy)-4-methoxyphenyl)piperazin-1-yl)-2-(1-methyl-1H-imidazol-4-yl)ethanone] as the compound, how does the pIC50 read?
The pIC50 was greater than 6.70.

With `COc1ccc(N2CCN(C(C)=O)[C@@H](CN3Cc4ccccc4C3)C2)cc1OC1CCCC1` [Compound 252, (S)-1-(4-(3-(cyclopentyloxy)-4-methoxyphenyl)-2-(isoindolin-2-ylmethyl)piperazin-1-yl)ethanone] as the compound, how does the pIC50 read?
Its pIC50 is 6.00 to 6.70.

How did the pIC50 turn out when `CC(C)C[C@H]1CN(c2ccc(OC(F)F)c(OCC3CC3)c2)CCN1C(=O)Cc1c[nH]cn1` [Compound 365, (S)-1-(4-(3-(cyclopropylmethoxy)-4-(difluoromethoxy)phenyl)-2-isobutylpiperazin-1-yl)-2-(1H-imidazol-4-yl)ethanone] was run?
Its pIC50 is 6.00 to 6.70.

With `COc1ccc(N2CCN(C(C)=O)[C@@H](Cc3cccc(C)c3)C2)cc1OC1CCCC1` [Compound 248, (S)-1-(4-(3-(cyclopentyloxy)-4-methoxyphenyl)-2-(3-methylbenzyl)piperazin-1-yl)ethanone] as the compound, how does the pIC50 read?
Its pIC50 is greater than 6.70.

How did the pIC50 turn out when `COc1ccc(N2CCN(C(=O)Cc3n[nH]c([N+](=O)[O-])n3)[C@@H](Cc3ccccc3)C2)cc1OC1CCCC1` [Compound 325, (S)-1-(2-benzyl-4-(3-(cyclopentyloxy)-4-methoxyphenyl)piperazin-1-yl)-2-(5-nitro-1H-1,2,4-triazol-3-yl)ethanone] was run?
Its pIC50 is greater than 6.70.

How did the pIC50 turn out when `COc1ccc(N2CCN(Cc3ccc(O)cc3)[C@@H](Cc3ccccc3)C2)cc1OC1CCCC1` [Compound 362, (S)-4-((2-benzyl-4-(3-(cyclopentyloxy)-4-methoxyphenyl)piperazin-1-yl)methyl)phenol] was run?
The pIC50 was less than 6.00.

With `COc1ccc(N2CCN(CC(N)=O)[C@@H](Cc3ccccc3)C2)cc1OC1CCC1` [Compound 268, (S)-2-(2-benzyl-4-(3-cyclobutoxy-4-methoxyphenyl)piperazin-1-yl)acetamide] as the compound, how does the pIC50 read?
The pIC50 was greater than 6.70.

How did the pIC50 turn out when `COc1ccc(N2CCN(C(=O)Cc3ccccn3)[C@@H](Cc3ccccc3)C2)cc1OC1CCCC1` [Compound 384, (S)-1-(2-benzyl-4-(3-(cyclopentyloxy)-4-methoxyphenyl)piperazin-1-yl)-2-(pyridin-2-yl)ethanone] was run?
The pIC50 was greater than 6.70.

`COc1ccc(N2CCN(C(=O)Cc3c[nH]cn3)[C@@H](Cc3ccccc3)C2)cc1OC1CCC1` [Compound 303, (S)-1-(2-benzyl-4-(3-cyclobutoxy-4-methoxyphenyl)piperazin-1-yl)-2-(1H-imidazol-4-yl)ethanone] was tested. Which pIC50 did it give?
The pIC50 was greater than 6.70.

How did the pIC50 turn out when `O=C(Cc1ncccn1)N1CCN(c2ccc(OC(F)F)c(OC3CCC3)c2)C[C@@H]1Cc1ccccc1` [Compound 356, (S)-1-(2-benzyl-4-(3-cyclobutoxy-4-(difluoromethoxy)phenyl)piperazin-1-yl)-2-(pyrimidin-2-yl)ethanone] was run?
Its pIC50 is 6.00 to 6.70.

`COc1ccc(N2CCN(C(=O)[C@@H]3CCC(=O)O3)[C@@H](Cc3ccccc3)C2)cc1OC1CCCC1` [Compound 295, (S)-5-((S)-2-benzyl-4-(3-(cyclopentyloxy)-4-methoxyphenyl)piperazine-1-carbonyl)dihydrofuran-2 (3H)-one] was tested. Which pIC50 did it give?
The pIC50 was less than 6.00.

How did the pIC50 turn out when `COc1ccc(N2CCN(C(=O)c3c[nH]c(=O)[nH]3)[C@@H](Cc3ccccc3)C2)cc1OC1CCCC1` [Compound 288, (S)-4-(2-benzyl-4-(3-(cyclopentyloxy)-4-methoxyphenyl)piperazine-1-carbonyl)-1H-imidazol-2(3H)-one] was run?
Its pIC50 is 6.00 to 6.70.

With `COc1ccc(N2CCN(C(=O)Cc3ccco3)[C@@H](Cc3ccccc3)C2)cc1OC1CCC1` [Compound 314, (S)-1-(2-benzyl-4-(3-cyclobutoxy-4-methoxyphenyl)piperazin-1-yl)-2-(furan-2-yl)ethanone] as the compound, how does the pIC50 read?
The pIC50 was 6.00 to 6.70.

`CCc1nn(C2CCC2)c2cc(N3CCN(C(=O)CC(N)=O)[C@@H](Cc4ccccc4)C3)ccc12` [Compound 264, (S)-3-(2-benzyl-4-(1-cyclobutyl-3-ethyl-1H-indazol-6-yl)piperazin-1-yl)-3-oxopropanamide] was tested. Which pIC50 did it give?
Its pIC50 is greater than 6.70.

How did the pIC50 turn out when `COc1ccc(N2CCN(C(=O)Cc3cc[nH]c3)[C@@H](Cc3ccccc3)C2)cc1OC1CCCC1` [Compound 307, (S)-1-(2-benzyl-4-(3-(cyclopentyloxy)-4-methoxyphenyl)piperazin-1-yl)-2-(1H-pyrrol-3-yl)ethanone] was run?
The pIC50 was greater than 6.70.

How did the pIC50 turn out when `COc1ccc(N2CCN(C(C)=O)[C@@H](CN3CCc4ccccc4C3)C2)cc1OC1CCCC1` [Compound 253, (S)-1-(4-(3-(cyclopentyloxy)-4-methoxyphenyl)-2-((3,4-dihydroisoquinolin-2(1H)-yl)methyl)piperazin-1-yl)ethanone] was run?
The pIC50 was greater than 6.70.

`COc1ccc(N2CCN(C(=O)Cc3ncccn3)[C@@H](Cc3ccccc3)C2)cc1OC(C)C` [Compound 343, (S)-1-(2-benzyl-4-(3-isopropoxy-4-methoxyphenyl)piperazin-1-yl)-2-(pyrimidin-2-yl)ethanone] was tested. Which pIC50 did it give?
Its pIC50 is 6.00 to 6.70.

How did the pIC50 turn out when `COc1ccc(N2CCN(CC(N)=O)[C@@H](Cc3ccccc3)C2)cc1OC(F)F` [Compound 271, (S)-2-(2-benzyl-4-(3-(difluoromethoxy)-4-methoxyphenyl)piperazin-1-yl)acetamide] was run?
The pIC50 was 6.00 to 6.70.

With `COc1ccc(N2CCN(C(=O)Cc3ncccn3)[C@@H](Cc3ccccc3)C2)cc1OC1CCC1` [Compound 340, (S)-1-(2-benzyl-4-(3-cyclobutoxy-4-methoxyphenyl)piperazin-1-yl)-2-(pyrimidin-2-yl)ethanone] as the compound, how does the pIC50 read?
The pIC50 was greater than 6.70.

How did the pIC50 turn out when `COc1ccc(N2CCN(C(=O)c3c[nH]cn3)[C@@H](Cc3ccccc3)C2)cc1OC1CCCC1` [Compound 241, (S)-(2-benzyl-4-(3-(cyclopentyloxy)-4-methoxyphenyl)piperazin-1-yl)(1H-imidazol-4-yl)methanone] was run?
The pIC50 was 6.00 to 6.70.

How did the pIC50 turn out when `CCc1nn(C2CCC2)c2cc(N3CCN(CC(N)=O)[C@@H](Cc4ccccc4)C3)ccc12` [Compound 275, (S)-2-(2-benzyl-4-(1-cyclobutyl-3-ethyl-1H-indazol-6-yl)piperazin-1-yl)acetamide] was run?
The pIC50 was less than 6.00.

How did the pIC50 turn out when `COc1ccc(N2CCN(C(=O)COC(C)=O)[C@@H](Cc3ccccc3)C2)cc1OC1CCCC1` [Compound 284, (S)-2-(2-benzyl-4-(3-(cyclopentyloxy)-4-methoxyphenyl)piperazin-1-yl)-2-oxoethyl acetate] was run?
Its pIC50 is less than 6.00.

With `COc1ccc(N2CCN(C(=O)CN3CC[C@@H](O)C3)[C@@H](Cc3ccccc3)C2)cc1OC1CCCC1` [Compound 320, 1-((S)-2-benzyl-4-(3-(cyclopentyloxy)-4-methoxyphenyl)piperazin-1-yl)-2-((R)-3-hydroxypyrrolidin-1-yl)ethanone] as the compound, how does the pIC50 read?
Its pIC50 is less than 6.00.

How did the pIC50 turn out when `COc1ccc(N2CCN(C(=O)Cc3cccnc3)[C@@H](Cc3ccccc3)C2)cc1OC1CCCC1` [Compound 385, (S)-1-(2-benzyl-4-(3-(cyclopentyloxy)-4-methoxyphenyl)piperazin-1-yl)-2-(pyridin-3-yl)ethanone] was run?
Its pIC50 is greater than 6.70.

With `CCc1nn(C2CCCC2)c2cc(N3CCN(C(=O)Cc4nc(C)n[nH]4)[C@@H](Cc4ccccc4)C3)ccc12` [Compound 380, (S)-1-(2-benzyl-4-(1-cyclopentyl-3-ethyl-1H-indazol-6-yl)piperazin-1-yl)-2-(3-methyl-1H-1,2,4-triazol-5-yl)ethanone] as the compound, how does the pIC50 read?
The pIC50 was greater than 6.70.

How did the pIC50 turn out when `COc1ccc(N2CCN(C(=O)C(C)C)[C@@H](Cc3ccccc3)C2)cc1OC1CCCC1` [Compound 243, (S)-1-(2-benzyl-4-(3-(cyclopentyloxy)-4-methoxyphenyl)piperazin-1-yl)-2-methylpropan-1-one] was run?
The pIC50 was less than 6.00.

How did the pIC50 turn out when `COc1ccc(N2CCN(C(=O)Cc3nc(N)n[nH]3)[C@@H](Cc3ccccc3)C2)cc1OC(C)C` [Compound 337, (S)-2-(3-amino-1H-1,2,4-triazol-5-yl)-1-(2-benzyl-4-(3-isopropoxy-4-methoxyphenyl)piperazin-1-yl)ethanone] was run?
Its pIC50 is greater than 6.70.

`CCc1nn(C2CCC2)c2cc(N3CCN(C(=O)Cc4ccccn4)[C@@H](Cc4ccccc4)C3)ccc12` [Compound 352, (S)-1-(2-benzyl-4-(1-cyclobutyl-3-ethyl-1H-indazol-6-yl)piperazin-1-yl)-2-(pyridin-2-yl)ethanone] was tested. Which pIC50 did it give?
The pIC50 was less than 6.00.
